Source: patent publication US9422292B2, “Bromodomain inhibitors and uses thereof” (Constellation Pharmaceuticals, Inc., priority 2011, dated 2016)

How the values were obtained:
[1] = system: MYC mRNA in MV4:11 (AML) cells; experiment: cMyc RNA quantification assay (QuantiGene) in MV4:11 cells; assay type: cell-based; conditions: Homo sapiens, 4 h, QuantiGene 2.0
Procedure: B. cMyc RNA Quantification Assay (QuantiGene® Assay):
MV4:11 (AML) cells were seeded in a 96-well plate and incubated in the presence of various concentrations of compounds for 4 h. Relative mRNA levels were quantitated by using QuantiGene 2.0 assay (Affymetrix) according to the manufacturer's recommendation. Signals were detected by using an Envision plate reader (Perkin-Elmer). Biological duplicates were averaged and normalized to vehicle (DMSO) control to calculate percent MYC mRNA levels.

BRD4 (BD1) = target: T1, BRD4 (BD1) (Homo sapiens, UniProt O60885); experiment: BRD4 AlphaLisa binding assay; conditions: BRD4 (BD1) 30 nM, biotinylated H4-tetraacetyl peptide 200 nM; read-out: BRD4 AlphaLisa
T1 construct: His; made in house
Procedure: A. IC50 Measurements for Inhibitors Using BRD4 AlphaLisa Binding Assay.
Specifically, in a 384 well ProxiPlate BRD4 (BD1) (30 nM final) was combined with peptide (200 nM final) in 40 mM HEPES (pH 7.0), 40 mM NaCl, 1 mM DTT, 0.01% (w/v) BSA, and 0.008% (w/v) Brij-35 either in the presence of DMSO (final 1.2% DMSO) or compound dilution series in DMSO. After 20 minute incubation at room temperature Alpha streptavidin donor beads and AlphaLisa anti-Flag acceptor beads were added to a final concentration of 10 ug/mL each. After three hours equilibration plates were read on an Envision instrument and IC50s calculated using a four parameter non-linear curve fit.

[2] = system: IL-6 secretion in THP-1 cells; experiment: Cell-based IL-6 quantification assay (ELISA, Mesoscale) in LPS-treated THP-1 cells; conditions: Homo sapiens, LPS 4 μg/mL, 16 h, ELISA value/CellTiter-Glo ratio
Procedure: C. Cell-Based IL-6 Quantification Assay (ELISA, Mesoscale Assay):
100,000 THP-1 cells were seeded in RPMI1640-10% FBS in 96-well plates. LPS (E. Coli Invitrogen) in RPMI−10% FBS at a final concentration of 4 μg/mL was added to the wells and the cells are then incubated in the presence of various concentrations of compounds for 16 h. Plates are spun ([…], 5 min), an aliquot of 25 uL supernatant is transferred in to an ELISA plate (Mesoscale technology, MSD) and the detection of IL-6 is performed using manufacturer's instructions. The amount of cells in each well is assessed using CellTiter-Glo® (Promega). The ratio of ELISA value/CellTiter-Glo value is used to calculate the percent of inhibition of IL-6 secretion.

Row | IC50 [1] | IC50 (BRD4 (BD1)) | IC50 [2] | Structure (SMILES)
1 | < 100 nM | < 100 nM | < 100 nM | Cc1nnc2n1-c1ccc(-c3cnn(C)n3)cc1N(c1ccc(Cl)cc1)C[C@H]2C [Compound 48, 4H-[1,2,4]triazolo[4,3-a][1,5]benzodiazepine, 5,6-dihydro-(4R)-1,4-dimethyl-8-(2-methyl-2H-1,2,3-triazole-4-yl)-6-(4-chloro-phenyl)]
2 | < 100 nM | < 100 nM | < 100 nM | Cc1nnc(-c2ccc3c(c2)N(c2ccc(Cl)cc2)C[C@@H](C)c2nnc(C)n2-3)o1 [Compound 49, 4-R-4H-[1,2,4]triazolo[4,3-a][1,5]benzodiazepine,5,6-dihydro-1,4-dimethyl-8-(5-methyl-1,3,4-oxadiazol-2-yl)-6-(4-chloro-phenyl)]
3 | < 100 nM | 100 to 1000 nM | < 100 nM | Cc1nc(-c2ccc3c(c2)N(c2ccc(Cl)cc2)C[C@@H](C)c2nnc(C)n2-3)no1 [Compound 50, 4-R-4H-[1,2,4]triazolo[4,3-a][1,5]benzodiazepine, 5,6-dihydro-1,4-dimethyl-8-(5-methyl-1,2,4-oxadiazol-3-yl)-6-(4-chloro-phenyl)]
4 | < 100 nM | 100 to 1000 nM | < 100 nM | Cc1noc(-c2ccc3c(c2)N(c2ccc(Cl)cc2)C[C@@H](C)c2nnc(C)n2-3)n1 [Compound 51, 4-R-4H-[1,2,4]triazolo[4,3-a][1,5]benzodiazepine,5,6-dihydro-1,4-dimethyl-8-(3-methyl-1,2,4-oxadiazol-5-yl)-6-(4-chloro-phenyl)]
5 | 100 to 1000 nM | < 100 nM | < 100 nM | Cc1nnc2n1-c1ccc(-c3cnn(C)c3)cc1N(c1ccc(C#N)cn1)C[C@H]2C [Compound 52, (R)-4H-[1,2,4]triazolo[4,3-a][1,5]benzodiazepine,5,6-dihydro-1,4-dimethyl-8-(1-methyl-1H-pyrazol-4-yl)-6-(5-cyanopyridin-2-yl)]
6 | 1000 to 10000 nM | 100 to 1000 nM | 100 to 1000 nM | Cc1nnc2n1-c1ccc(C(=O)N3CCCC3)cc1N(c1ccc(Cl)cc1)C[C@H]2C [Compound 53, 4-R-4H-[1,2,4]triazolo[4,3-a][1,5]benzodiazepine,5,6-dihydro-1,4-dimethyl-8-(pyrrolidine-1-carbonyl)-6-(4-chloro-phenyl)]
7 | < 100 nM | < 100 nM | < 100 nM | Cc1nnc2n1-c1ccc(-n3cncn3)cc1N(c1ccc(Cl)cc1)C[C@H]2C [Compound 54, (R)-6-(4-chlorophenyl)-1,4-dimethyl-8-(1H-1,2,4-triazol-1-yl)-5,6-dihydro-4H-benzo[b][1,2,4]triazolo[4,3-d][1,4]diazepine]
8 | < 100 nM | < 100 nM | < 100 nM | Cc1nnc2n1-c1ccc(-c3cnc(N)cn3)cc1N(c1ccc(Cl)cc1)C[C@H]2C [Compound 55, 4-R-4H-[1,2,4]triazolo[4,3-a][1,5]benzodiazepine,5,6-dihydro-1,4-dimethyl-8-(5-aminopyrazin-2-yl)-6-(4-chloro-phenyl)]
9 | 1000 to 10000 nM | 1000 to 10000 nM | 1000 to 10000 nM | Cc1nnc2n1-c1ccc(-c3cnn(C)c3)cc1N(c1ccc(C#N)cn1)C[C@@H]2C [Compound 58, (S)-4H-[1,2,4]triazolo[4,3-a][1,5]benzodiazepine, 5,6-dihydro-1,4-dimethyl-8-(1-methyl-1H-pyrazol-4-yl)-6-(5-cyanopyridin-2-yl)]
10 | < 100 nM | < 100 nM | < 100 nM | Cc1c(-c2ccc3c(c2)N(c2ccc(Cl)cc2)C[C@@H](C)c2nnc(C)n2-3)cnn1C [Compound 59, (R)-6-(4-chlorophenyl)-8-(1,5-dimethyl-1H-pyrazol-4-yl)-1,4-dimethyl-5,6-dihydro-4H-benzo[b][1,2,4]triazolo[4,3-d][1,4]diazepine]
11 | 1000 to 10000 nM | 100 to 1000 nM | 100 to 1000 nM | Cc1nnc2n1-c1ccc(S(C)(=O)=O)cc1N(c1ccc(Cl)cc1)C[C@H]2C [Compound 60, 4H-[1,2,4]Triazolo[4,3-a][1,5]benzodiazepine,5,6-dihydro-(4R)-1,4-dimethyl-8-methylsulfonyl-6-(4-chloro-phenyl)]
12 | < 100 nM | < 100 nM | < 100 nM | Cc1nnc2n1-c1ccc(-c3ccc(=O)[nH]c3)cc1N(c1ccc(Cl)cc1)C[C@H]2C [Compound 61, (R)-5-(6-(4-chlorophenyl)-1,4-dimethyl-5,6-dihydro-4H-benzo[b][1,2,4]triazolo[4,3-d][1,4]diazepin-8-yl)pyridin-2(1H)-one]
13 | < 100 nM | < 100 nM | < 100 nM | Cc1nnc2n1-c1ccc(-c3ccc(=O)n(C)c3)cc1N(c1ccc(Cl)cc1)C[C@H]2C [Compound 62, (R)-5-(6-(4-chlorophenyl)-1,4-dimethyl-5,6-dihydro-4H-benzo[b][1,2,4]triazolo[4,3-d][1,4]diazepin-8-yl)-1-methylpyridin-2(1H)-one]
14 | 1000 to 10000 nM | 100 to 1000 nM | > 1000 nM | Cc1nnc2n1-c1ccc(-c3cnc(N)cn3)cc1N(c1ccc(C#N)cc1)C[C@@H]2C [Compound 63]
15 | < 100 nM | < 100 nM | < 100 nM | Cc1nnc2n1-c1ccc(-c3cn(C)nn3)cc1N(c1ccc(Cl)cc1)C[C@H]2C [Compound 64, 4H-[1,2,4]Triazolo[4,3-a][1,5]benzodiazepine, 5,6-dihydro-1,4-dimethyl-8-(1-methyl-2H-1,2,3-triazole-4-yl)-6-(4-chloro-phenyl)]
16 | 1000 to 10000 nM | 100 to 1000 nM | 100 to 1000 nM | Cc1ncnn1-c1ccc2c(c1)N(c1ccc(Cl)cc1)C[C@@H](C)c1nnc(C)n1-2 [Compound 65, (R)-6-(4-chlorophenyl)-1,4-dimethyl-8-(5-methyl-1H-1,2,4-triazol-1-yl)-5,6-dihydro-4H-benzo[b][1,2,4]triazolo[4,3-d][1,4]diazepine]
17 | < 100 nM | < 100 nM | < 100 nM | Cc1ncn(-c2ccc3c(c2)N(c2ccc(Cl)cc2)C[C@@H](C)c2nnc(C)n2-3)n1 [Compound 66, (R)-6-(4-chlorophenyl)-1,4-dimethyl-8-(3-methyl-1H-1,2,4-triazol-1-yl)-5,6-dihydro-4H-benzo[b][1,2,4]triazolo[4,3-d][1,4]diazepine]
18 | 1000 to 10000 nM | < 100 nM | 1000 to 10000 nM | Cc1nnc2n1-c1ccc(-c3ccc(=O)[nH]c3)cc1N(c1ccc(C#N)cc1)C[C@H]2C [Compound 68, (R)-4-(1,4-dimethyl-8-(6-oxo-1,6-dihydropyridin-3-yl)-4H-benzo[b][1,2,4]triazolo[4,3-d][1,4]diazepin-6(5H)-yl)benzonitrile]
19 | 1000 to 10000 nM | < 100 nM | 1000 to 10000 nM | Cc1nnc2n1-c1ccc(-c3ccc(N)nc3)cc1N(c1ccc(N)nc1)C[C@H]2C [Compound 71, (R)-5,5′-(1,4-dimethyl-4H-benzo[b][1,2,4]triazolo[4,3-d][1,4]diazepine-6,8(5H)-diyl)dipyridin-2-amine]
20 | 1000 to 10000 nM | 100 to 1000 nM | > 1000 nM | Cc1nnc2n1-c1ccc(-c3cnn(C)n3)cc1N(c1ccc(S(C)(=O)=O)cc1)C[C@@H]2C [Compound 72, (R)-4H-[1,2,4]Triazolo[4,3-a][1,5]benzodiazepine, 5,6-dihydro-1,4-dimethyl-8-(2-methyl-2H-1,2,3-triazole-4-yl)-6-(4-methylsulfonyl-phenyl)]
21 | 100 to 1000 nM | < 100 nM | 100 to 1000 nM | Cc1nnc2n1-c1ccc(-c3cnn(C)n3)cc1N(c1ccc(S(C)(=O)=O)cc1)C[C@H]2C [Compound 73, (S)-4H-[1,2,4]Triazolo[4,3-a][1,5]benzodiazepine, 5,6-dihydro-1,4-dimethyl-8-(2-methyl-2H-1,2,3-triazole-4-yl)-6-(4-methylsulfonyl-phenyl)]
22 | < 100 nM | < 100 nM | < 100 nM | Cc1nnc2n1-c1ccc(-c3cnn(C)n3)cc1N(c1ccc(C#N)cc1)C[C@H]2C [Compound 75, (S)-4H-[1,2,4]Triazolo[4,3-a][1,5]benzodiazepine, 5,6-dihydro-1,4-dimethyl-8-(2-methyl-2H-1,2,3-triazole-4-yl)-6-(4-cyano-phenyl)]
23 | 1000 to 10000 nM | 1000 to 10000 nM | > 1000 nM | Cc1nnc2n1-c1ccc(Br)cc1N(c1ccc(S(C)(=O)=O)cc1)C[C@H]2C [Compound 77, (R)-8-bromo-1,4-dimethyl-6-(4-(methylsulfonyl)phenyl)-5,6-dihydro-4H-benzo[b][1,2,4]triazolo[4,3-d][1,4]diazepine]
